The values that follow are results of earlier work, collected in EP0622459A1, “Fused proteins for preparing vasoactive intestinal polypeptide analogs, method of preparing same and recombinant plasmids and transformant microorganisms” (SANWA KAGAKU KENKYUSHO CO., LTD., priority 1993, dated 1994).

Ends that are not written are not given here.

The conditions of this series: prior-art analogs, result in words.

For the substance “Leu¹⁷-VIP-OH: genetically engineered VIP analog of the prior art (JP-A-1-296996 and JP-A-3-280893) (HSDAVFTDNYTRLRKQLAVKKYLNSILN-OH; UniProt P01282 125-152, looked up, variant M17L)”, the “biological activity compared with VIP” value is “only comparable to naturally occurring VIP”.
